# In ChEMBL document CHEMBL3885861, “Open TG-GATES”:
# Organism: Rattus norvegicus
# Test: Open TG-GATES - Regimen: Single
# Type: toxicity, organism-based, Sprague-Dawley
# Parameters: regimen Single, gender Male, age 6 weeks
# Conditions: in vivo, po, route gavage; for gamma-GTP / ALP / ALT / AST / BUN / CRE / Ca / Cl / DBIL / GLC / IP / K / LDH / Na / PL / RALB / TBIL / TC / TG / TP: tissue Plasma; for APTT / Bas / Eos / Hb / Ht / Lym / MCH / MCHC / MCV / Mono / Neu / PT / Plat / RBC / Ret / WBC / Fbg: tissue Blood; for KIDNEY_L / KIDNEY_R / KIDNEY_TOTAL: tissue Kidney; for LIVER: tissue Liver
# [1] = 300 mg/kg, 24 h, dose level Low
smiles,measurement,setting,value
CCOc1ccc(NC(C)=O)cc1 [PHENACETIN],gamma-GTP,"0 mg/kg, 24 h, dose level Control",1 IU/L
same,TERMINAL_BW,"300 mg/kg, 3 h, dose level Low",214.8 g
same,APTT,"300 mg/kg, 3 h, dose level Low",17.3 s
same,Bas,"300 mg/kg, 3 h, dose level Low",0.4%
same,Eos,"300 mg/kg, 3 h, dose level Low",1%
same,Hb,"300 mg/kg, 3 h, dose level Low",14.3 g/dL
same,Ht,"300 mg/kg, 3 h, dose level Low",42.8%
same,Lym,"300 mg/kg, 3 h, dose level Low",73.2%
same,MCH,"300 mg/kg, 3 h, dose level Low",20.6 pg
same,MCHC,"300 mg/kg, 3 h, dose level Low",33.3%
same,MCV,"300 mg/kg, 3 h, dose level Low",62.2 fL
same,Mono,"300 mg/kg, 3 h, dose level Low",2.6%
same,Neu,"300 mg/kg, 3 h, dose level Low",22.8%
same,PT,"300 mg/kg, 3 h, dose level Low",14 s
same,Plat,"300 mg/kg, 3 h, dose level Low",134.5 x10_4/uL
same,RBC,"300 mg/kg, 3 h, dose level Low",689.2 x10_4/ul
same,Ret,"300 mg/kg, 3 h, dose level Low",8.6%
same,WBC,"300 mg/kg, 3 h, dose level Low",59.5 x10_2/uL
same,KIDNEY_L,"300 mg/kg, 3 h, dose level Low",1 g
same,KIDNEY_R,"300 mg/kg, 3 h, dose level Low",1 g
same,KIDNEY_TOTAL,"300 mg/kg, 3 h, dose level Low",1.9 g
same,LIVER,"300 mg/kg, 3 h, dose level Low",9.3 g
same,ALP,"300 mg/kg, 3 h, dose level Low",1454.6 IU/L
same,ALT,"300 mg/kg, 3 h, dose level Low",38.2 IU/L
same,AST,"300 mg/kg, 3 h, dose level Low",72 IU/L
same,BUN,"300 mg/kg, 3 h, dose level Low",8.4 mg/dL
same,CRE,"300 mg/kg, 3 h, dose level Low",0.2 mg/dL
same,Ca,"300 mg/kg, 3 h, dose level Low",10.9 mg/dL
same,Cl,"300 mg/kg, 3 h, dose level Low",101 meq/L
same,DBIL,"300 mg/kg, 3 h, dose level Low",0 mg/dL
same,GLC,"300 mg/kg, 3 h, dose level Low",206.6 mg/dL
same,IP,"300 mg/kg, 3 h, dose level Low",11.3 mg/dL
same,K,"300 mg/kg, 3 h, dose level Low",3.7 meq/L
same,LDH,"300 mg/kg, 3 h, dose level Low",77.4 IU/L
same,Na,"300 mg/kg, 3 h, dose level Low",141.6 meq/L
same,PL,"300 mg/kg, 3 h, dose level Low",152.4 mg/dL
same,RALB,"300 mg/kg, 3 h, dose level Low",2.6 g/dL
same,TBIL,"300 mg/kg, 3 h, dose level Low",0.034 mg/dL
same,TC,"300 mg/kg, 3 h, dose level Low",83.2 mg/dL
same,TG,"300 mg/kg, 3 h, dose level Low",78.2 mg/dL
same,TP,"300 mg/kg, 3 h, dose level Low",5.7 g/dL
same,gamma-GTP,"300 mg/kg, 3 h, dose level Low",1.4 IU/L
same,TERMINAL_BW,"300 mg/kg, 6 h, dose level Low",205.3 g
same,APTT,"300 mg/kg, 6 h, dose level Low",16.7 s
same,Bas,"300 mg/kg, 6 h, dose level Low",0%
same,Eos,"300 mg/kg, 6 h, dose level Low",0.2%
same,Fbg,"300 mg/kg, 6 h, dose level Low",332.4 mg/dL
same,Ht,"300 mg/kg, 6 h, dose level Low",43.8%
same,Lym,"300 mg/kg, 6 h, dose level Low",74%
same,MCH,"300 mg/kg, 6 h, dose level Low",21.2 pg
same,MCHC,"300 mg/kg, 6 h, dose level Low",33.7%
same,MCV,"300 mg/kg, 6 h, dose level Low",62.9 fL
same,Mono,"300 mg/kg, 6 h, dose level Low",2.4%
same,PT,"300 mg/kg, 6 h, dose level Low",14.2 s
same,Plat,"300 mg/kg, 6 h, dose level Low",124.8 x10_4/uL
same,RBC,"300 mg/kg, 6 h, dose level Low",696 x10_4/ul
same,Ret,"300 mg/kg, 6 h, dose level Low",8.3%
same,WBC,"300 mg/kg, 6 h, dose level Low",66.9 x10_2/uL
same,KIDNEY_L,"300 mg/kg, 6 h, dose level Low",1 g
same,KIDNEY_R,"300 mg/kg, 6 h, dose level Low",0.9 g
same,KIDNEY_TOTAL,"300 mg/kg, 6 h, dose level Low",1.9 g
same,LIVER,"300 mg/kg, 6 h, dose level Low",9.1 g
same,ALP,"300 mg/kg, 6 h, dose level Low",1428.2 IU/L
same,ALT,"300 mg/kg, 6 h, dose level Low",39 IU/L
same,AST,"300 mg/kg, 6 h, dose level Low",71.2 IU/L
same,BUN,"300 mg/kg, 6 h, dose level Low",9.6 mg/dL
same,CRE,"300 mg/kg, 6 h, dose level Low",0.1 mg/dL
same,Ca,"300 mg/kg, 6 h, dose level Low",11.1 mg/dL
same,Cl,"300 mg/kg, 6 h, dose level Low",101.2 meq/L
same,DBIL,"300 mg/kg, 6 h, dose level Low",0 mg/dL
same,GLC,"300 mg/kg, 6 h, dose level Low",198.4 mg/dL
same,IP,"300 mg/kg, 6 h, dose level Low",10.1 mg/dL
same,K,"300 mg/kg, 6 h, dose level Low",3.7 meq/L
same,LDH,"300 mg/kg, 6 h, dose level Low",80.4 IU/L
same,Na,"300 mg/kg, 6 h, dose level Low",140.4 meq/L
same,PL,"300 mg/kg, 6 h, dose level Low",152.6 mg/dL
same,RALB,"300 mg/kg, 6 h, dose level Low",2.7 g/dL
same,TBIL,"300 mg/kg, 6 h, dose level Low",0.046 mg/dL
same,TC,"300 mg/kg, 6 h, dose level Low",94.2 mg/dL
same,TG,"300 mg/kg, 6 h, dose level Low",35.6 mg/dL
same,TP,"300 mg/kg, 6 h, dose level Low",5.8 g/dL
same,gamma-GTP,"300 mg/kg, 6 h, dose level Low",1 IU/L
same,TERMINAL_BW,"300 mg/kg, 9 h, dose level Low",204.1 g
same,APTT,"300 mg/kg, 9 h, dose level Low",17.8 s
same,Bas,"300 mg/kg, 9 h, dose level Low",0%
same,Eos,"300 mg/kg, 9 h, dose level Low",0.6%
same,Fbg,"300 mg/kg, 9 h, dose level Low",313.2 mg/dL
same,Hb,"300 mg/kg, 9 h, dose level Low",14.4 g/dL
same,Ht,"300 mg/kg, 9 h, dose level Low",42.3%
same,Lym,"300 mg/kg, 9 h, dose level Low",72.2%
same,MCH,"300 mg/kg, 9 h, dose level Low",21 pg
same,MCV,"300 mg/kg, 9 h, dose level Low",61.6 fL
same,Mono,"300 mg/kg, 9 h, dose level Low",4.2%
same,Neu,"300 mg/kg, 9 h, dose level Low",22.2%
same,PT,"300 mg/kg, 9 h, dose level Low",13.9 s
same,Plat,"300 mg/kg, 9 h, dose level Low",119.6 x10_4/uL
same,RBC,"300 mg/kg, 9 h, dose level Low",686.6 x10_4/ul
same,Ret,"300 mg/kg, 9 h, dose level Low",8.4%
same,WBC,"300 mg/kg, 9 h, dose level Low",60.7 x10_2/uL
same,KIDNEY_L,"300 mg/kg, 9 h, dose level Low",0.9 g
same,KIDNEY_R,"300 mg/kg, 9 h, dose level Low",0.9 g
same,KIDNEY_TOTAL,"300 mg/kg, 9 h, dose level Low",1.8 g
same,LIVER,"300 mg/kg, 9 h, dose level Low",8.5 g
same,ALP,"300 mg/kg, 9 h, dose level Low",1326.6 IU/L
same,ALT,"300 mg/kg, 9 h, dose level Low",33.4 IU/L
same,AST,"300 mg/kg, 9 h, dose level Low",65.4 IU/L
same,BUN,"300 mg/kg, 9 h, dose level Low",11.6 mg/dL
same,CRE,"300 mg/kg, 9 h, dose level Low",0.2 mg/dL
same,Ca,"300 mg/kg, 9 h, dose level Low",11.1 mg/dL
same,Cl,"300 mg/kg, 9 h, dose level Low",99 meq/L
same,DBIL,"300 mg/kg, 9 h, dose level Low",0.008 mg/dL
same,GLC,"300 mg/kg, 9 h, dose level Low",210.8 mg/dL
same,IP,"300 mg/kg, 9 h, dose level Low",8.8 mg/dL
same,K,"300 mg/kg, 9 h, dose level Low",4 meq/L
same,LDH,"300 mg/kg, 9 h, dose level Low",93 IU/L
same,Na,"300 mg/kg, 9 h, dose level Low",139 meq/L
same,PL,"300 mg/kg, 9 h, dose level Low",163.2 mg/dL
same,RALB,"300 mg/kg, 9 h, dose level Low",2.7 g/dL
same,TBIL,"300 mg/kg, 9 h, dose level Low",0.062 mg/dL
same,TC,"300 mg/kg, 9 h, dose level Low",94.8 mg/dL
same,TG,"300 mg/kg, 9 h, dose level Low",50.6 mg/dL
same,TP,"300 mg/kg, 9 h, dose level Low",5.8 g/dL
same,gamma-GTP,"300 mg/kg, 9 h, dose level Low",1.4 IU/L
same,TERMINAL_BW,[1],210.4 g
same,APTT,[1],16.7 s
same,Bas,[1],0%
same,Eos,[1],1%
same,Fbg,[1],297.4 mg/dL
same,Hb,[1],13.9 g/dL
same,Ht,[1],41.5%
same,Lym,[1],77.4%
same,MCH,[1],20.7 pg
same,MCHC,[1],33.4%
same,MCV,[1],62.2 fL
same,Mono,[1],2.6%
same,Neu,[1],18.6%
same,PT,[1],14.1 s
same,Plat,[1],126.5 x10_4/uL
same,RBC,[1],668.8 x10_4/ul
same,Ret,[1],7.5%
same,WBC,[1],86.4 x10_2/uL
same,KIDNEY_L,[1],1 g
same,KIDNEY_R,[1],1 g
same,KIDNEY_TOTAL,[1],1.9 g
same,LIVER,[1],9.2 g
same,ALP,[1],1966 IU/L
same,ALT,[1],44.4 IU/L
same,AST,[1],83 IU/L
same,BUN,[1],14.4 mg/dL
same,CRE,[1],0.2 mg/dL
same,Ca,[1],11.1 mg/dL
same,Cl,[1],105 meq/L
same,DBIL,[1],0.01 mg/dL
same,GLC,[1],168.6 mg/dL
same,IP,[1],7.7 mg/dL
same,K,[1],4.4 meq/L
same,LDH,[1],149.6 IU/L
same,Na,[1],144 meq/L
same,PL,[1],166 mg/dL
same,RALB,[1],2.6 g/dL
same,TBIL,[1],0.05 mg/dL
same,TC,[1],87.8 mg/dL
same,TG,[1],84.4 mg/dL
